The text below walks through data of a melting point compilation (Tetko et al.; mined from patent text by program, amines drawn as free bases though some values may be those of a salt).

The melting point is the temperature, or range, at which the solid turns liquid.

Molecules are shown by their SMILES.

On to `Cc1nc2c(c3c1[nH]c1ccccc13)C(=O)CC(C(C)C)C2` (stereo not drawn), for which the melting point was in the range of 248 to 249 °C. The result for `COc1c(F)c(Oc2cc(C(F)(F)F)nn2C)nc(Oc2cc(C(F)(F)F)nn2C)c1F` reads 83 °C; that for `CCCCc1oc2ccccc2c1C(=O)NCc1ccc2c(Br)c(OCC#N)ccc2c1`, 154 to 157 °C; that for `COc1cccc(Oc2cccc3c2C2(COc4cc5c(cc42)OCCO5)C(=O)N3C)c1` (stereo not drawn), 166 to 168 °C. The result for `CN(C)C(=O)C(C)(C)n1ccc(-c2cc(Cl)ccc2Cl)n1` reads 94 to 96 °C. As for `Oc1ccc2c(c1)CCCC(c1ccccc1)=C2c1ccc(OCCCCSCc2ccccn2)cc1`, the figure is 155 °C; as for `Fc1ccc(-c2ccc3c(c2)C2(CCCCC2)C(=NOCc2ccccc2)N3)cc1`, 205 to 208 °C.

Compound `CC(C)CC(COc1ccc(-c2ccc(C#N)cc2)cc1)N(O)C=O` (stereo not drawn) returned a melting point of 112 to 113 °C. As for `Cc1cc(C#N)ccc1-c1cc(=O)c2c(O)cc(O)c([C@@H]3CCN(C)[C@H]3CO)c2o1`, the figure is 145 to 147 °C. The result for `O=C(c1ccccc1Cl)c1cc(Cl)ccc1-n1ccnc1` reads 146 to 148 °C; that for `COc1ccc2c(=O)c(-c3ccccc3)c(SCc3ccccc3)oc2c1`, 153 to 154 °C.

Turning to `COc1ccc(-c2c(C(=O)O)n(Cc3cc4c(cc3Cl)OCO4)c3ccccc23)c(OCC(=O)O)c1`, the melting point was in the range of 61 to 62 °C. As for `COC(=O)C(Cc1ccc(OCCc2nc(-c3ccccc3)oc2C)cc1)C(=O)O` (stereo not drawn), the melting point lay in the range of 126 to 127 °C. As for `Cc1ncc(CN2CCN(CCc3ccccc3)CC2)c(N)n1`, the figure is 162 to 165 °C; as for `Cc1ccc(Sc2c(Cl)c(C(=O)O)c(C(O)=NCCO)c(Cl)c2Sc2ccc(C)cc2)cc1`, 211 to 212 °C; as for `O=C1C2CCCCC2(Cl)C(=O)N1c1ccc(Cl)cc1` (stereo not drawn), 116 to 118 °C. As for `O=C(NCS(=O)(=O)c1ccccc1)c1cc(Cl)nc(Cl)c1`, the figure is 209 to 210 °C; as for `CN(C)c1cccc(S(=O)Nc2ccccc2)c1` (stereo not drawn), 86 to 87 °C. `O=C1c2ccccc2-c2cc(O)cc3cccc1c23` displayed a melting point of 297 to 298 °C.

`CC(=O)OC1=CCc2c(Oc3ccc(NC(=O)c4ccc(Cl)c(Cl)c4)cn3)cccc21` registered a melting point of 161 to 164 °C. As for `CC(COc1c(-c2ccccc2)c(=O)oc2ccccc12)CN1CCCCC1` (stereo not drawn), the figure is 86 to 87 °C; as for `CNC(=O)c1cccc(CNc2n[nH]c3ncnc(Nc4cccc(Cl)c4)c23)c1`, 252 to 254 °C. The result for `CC(C)(C)OC(=O)Nc1cn(-c2cccnc2)nc1Cl` reads 125 to 128 °C. Consider `Cc1cn(-c2ccc(NC(=O)c3ccc(C)c(C#Cc4ccc(NC(C)C)nn4)c3)cc2C(F)(F)F)cn1`, for which the melting point was 141 to 143 °C. The result for `c1ccc(C2CNc3c4c(nc5cccc(c35)O2)CCCC4)cc1` (stereo not drawn) reads 194 to 195 °C. `CN1CCCC(c2cccc(-n3cnc4cc(C(=O)OCC5CC5)ccc43)c2)C1` (stereo not drawn) displayed a melting point of 111 to 113 °C. As for `CC(=O)Oc1ccc2c(c1)CCC1C2CCC2(C)C(OC(=O)c3ccccc3)CCC12` (stereo not drawn), the figure is 148 to 150 °C; as for `COc1cc(NC(=O)Oc2ccc(N(CCCl)CCCl)cc2)cc(Nc2c3ccccc3nc3ccccc23)c1`, 179 to 180 °C. `CS(=O)(=O)c1ccc(-c2cnn(-c3ccc(F)cc3)c(=O)c2COc2ccccc2)cc1` came in with a melting point of 42 to 75 °C. The result for `Clc1ccc(-c2[nH]nc3c2Cc2ccccc2-3)cc1` reads 266 to 268 °C; that for `CC(=O)NC(=O)C(SC(C)=O)c1ccccc1` (stereo not drawn), 96 °C. The compound `O=C(c1cccnc1)c1ccc2c(c1)CN1C=CNC1=N2` yielded a melting point of 275 °C.

`COc1ccc(-n2nc(Sc3cc(OC)cc(OC)c3)c(C)c(C#N)c2=O)cc1`: the melting point was 181 to 184 °C. As for `CCOC(=O)n1cc(C#N)c(-c2cccc(Cl)c2F)c1`, the figure is 149 °C; as for `CC(C)Sc1c(N)cccc1C#N`, 82 °C.

In turn, `CC(CN(C)C)N1c2ccccc2Sc2ccc(C(=O)NCc3cccs3)cc21` (racemic) registered a melting point of 135 °C. The result for `COCCCNS(=O)(=O)NC(=O)/C(C)=C/c1ccc(OC(C)C)cc1Oc1ncc(C(F)(F)F)cc1Cl` reads 120 to 121 °C; that for `O=C(C1CCCCC1)N(CCN1CCN(c2cccc3cccnc23)CC1)c1ccccc1OC(F)(F)F`, 142 to 143 °C; that for `O=C1OC(N2C(=O)NC(=O)C23C(=O)N(Cc2ccc(Cl)c(Cl)c2)c2ccccc23)c2ccccc21` (stereo not drawn), 154 to 158 °C. As for `Oc1cccc(Cc2cnc3c(-c4cc(-c5ccccc5)cs4)cnn3c2O)c1`, the figure is 235 to 237 °C.

In turn, `N#Cc1ccc(-c2cc(-c3ccc(C#N)cc3Cl)on2)cc1` displayed a melting point of 260 to 262 °C.

Turning to `COC(=O)c1cc(-n2cnnc2)c(C(F)(F)F)cc1NC(C)=O`, the melting point fell in the range of 180 to 184 °C. `CCOC(=O)C(OS(N)(=O)=O)c1ccccc1` (stereo not drawn) came in with a melting point of 91 to 93 °C.

On to `CNc1nc(C)c(-c2nc3ccccc3c(=O)n2-c2ccccc2C)s1`, for which the melting point lay within 218 to 220 °C. As for `CC1CC(=O)NN=C1c1ccc2c(c1)N(C)C(=O)CO2` (stereo not drawn), the figure is 215 to 218 °C; as for `CCc1nc2c(OCc3ccccc3)cc(C(=O)N(C)C)cc2n1C`, 104 to 108 °C.

As for `Cc1cc(CCCCCOc2ccc(C#N)cc2)on1`, the melting point came out at 57 °C. As to `CCOP(=O)(CC(=O)Nc1c(C(C)C)cccc1C(C)C)NCC(c1ccccc1)c1ccccc1` (stereo not drawn), the melting point lay in the range of 172 to 176 °C.

Take `COc1cccc2c1OC(C(N)=O)(c1ccncc1CC(=O)OCc1ccccc1)C2` (stereo not drawn): the melting point lay in the range of 165 to 166 °C. As for `CCn1cc(C(=O)O)c(=O)c2cc(F)c(N3CCN(S(=O)(=O)c4ccc(N)cc4)CC3)cc21`, the figure is 283 to 284 °C; as for `O=S(=O)(c1ccc(N2CCCCCC2)cc1)N1CCCC1=S`, 172 to 173 °C. The result for `Cc1ccccc1OCC(O)CNCCCOc1ccccc1` (stereo not drawn) reads 73 to 74 °C; that for `CCNC(=O)[C@H](C)NC(=O)[C@H](C)NC(=O)CC`, 289 to 291 °C; that for `Fc1ccc(/C=C/c2nc(COc3ccc(CCCCn4ccnn4)cc3)co2)cc1`, 124 to 125 °C.

`COC(=O)c1ccc(C(=O)NCc2cc(O)cc(O)c2)cc1Cl` displayed a melting point of 152 to 155 °C. The result for `COC(=O)NC(C(=O)O)c1ccc([N+](=O)[O-])cc1` (stereo not drawn) reads 152 °C. For `CCCCN1C(=O)CN(c2ccccc2)C1=O`, the melting point was determined as 74 °C.

Take `O=C(CCc1cccnc1)c1ccccc1`: the melting point lay in the range of 86 to 87 °C.

The compound `COc1ccc(-c2nc(S(=O)c3ccncc3)[nH]c2-c2ccc(OC)cc2)cc1` (stereo not drawn) gave a melting point of 170 to 171 °C. The result for `CCONC(=O)COc1cccc2c1c(C(=O)C(N)=O)c(CC)n2Cc1ccccc1` reads 176 to 178 °C. For `COc1cccc(NC(=O)c2cccs2)c1`, the melting point fell in the range of 139 to 145 °C. `C=CCOc1ccccc1N(CC(O)CNC(C)C)S(C)(=O)=O` (stereo not drawn) showed a melting point of 139 to 141 °C. `O=CN1CCN(CCSc2nc3ccccc3[nH]2)CC1` returned a melting point of 146 to 148 °C. The result for `CN(C)c1cccc2c1OC1(CC1)C2=O` reads 68.3 °C; that for `CC(C)Oc1ccccc1C1(N)C(=O)Nc2ccc(Cl)cc21` (stereo not drawn), 193 °C.

Regarding `CS(=O)(=O)c1ccc(-c2nc(C(F)(F)F)nc(NN)c2-c2ccc(S(=O)(=O)NN)cc2)cc1`, the melting point lay within 203 to 206 °C.

For the compound `O=c1[nH]c2c(F)cc([N+](=O)[O-])cc2o1`, the melting point lay in the range of 177 to 179 °C. The result for `CCCCC(N=O)C(C)(C)Cl` (stereo not drawn) reads 84 to 85 °C; that for `Cc1ccc(-c2csc(-c3ccc4c(c3)C(C)(C)CCC4(C)C)c2)cc1`, 135 to 136 °C; that for `CCCCCn1cc(C(=O)O)c(=O)cc1C`, 126 °C.

As for `O=C(O)c1cc(OC(F)(F)F)ccc1[N+](=O)[O-]`, the melting point is 90 to 93 °C. As for `Cc1cc(C)c(C(=O)P(=O)(CC(C)C)C(=O)c2c(C)cc(C)cc2C)c(C)c1`, the figure is 85 to 86 °C; as for `CCc1ccc(COc2cccc3c2CN(C2CCC(=O)NC2=O)C3=O)cc1` (stereo not drawn), 158 to 160 °C; as for `CCOC(=O)c1cc2c(OCC3CO3)cc(C)cc2[nH]1` (stereo not drawn), 173 to 175 °C.

`Cc1cnc(Cl)c(C(=O)O)c1` gave a melting point of 180 °C. The result for `Cc1c(C(=O)Nc2ccc(N3CCC(N4CCOCC4)CC3)c(C#N)c2)cnn1CCc1ccccc1` reads 195 °C; that for `CS(=O)(=O)NCCCCCCCCn1cnc2c(N)nc3ccccc3c21`, 153 to 155 °C; that for `O=c1[nH]c(=O)n(C2CC(Br)C(CBr)O2)cc1C=CBr` (stereo not drawn), 153 °C. As for `CC1OC(=O)Nc2ccc(-c3cccc(F)c3)cc21` (stereo not drawn), the figure is 160 to 161 °C. As for `CC1(C)COC(c2ccccc2C2Oc3cccc(F)c3C(=O)C2=Cc2ccccc2)=N1` (stereo not drawn), the figure is 110 to 112 °C. `CC(C)(C)OC(=O)N[C@H]1C=C[C@@H](C(=O)O)C1` had a melting point of 153 to 155 °C.

`Cc1c(=O)[nH]c(=O)n2cc(C(=O)O)sc12` had a melting point of over 205 °C. As for `CC(=O)N1c2ccc(-c3ccc(C(=O)O)cc3)cc2C(Nc2ccccc2)CC1C` (stereo not drawn), the figure is 246 °C; as for `Cc1c(-c2ccccc2)oc2c(C(=O)NCCCCl)cccc2c1=O`, 193 to 194 °C; as for `CCOC(=O)c1c(CSc2ccccc2)n(C)c2cc(Br)c(O)c(CN(C)C)c12`, 127 to 128 °C. As for `COc1ccc(-c2c(C(C)=O)c(Cn3cncn3)nc3cc(OC)c(OC)cc23)cc1OC`, the figure is 180 to 181 °C; as for `O=C(O)c1coc2ccc(Br)cc2c1=O`, 260 to 264 °C. The result for `Cc1ccc(S(=O)(=O)n2c(CCCC(=O)O)cc3nc(Cl)ccc32)cc1` reads 172 °C.
